Measured values reported in ChEMBL document CHEMBL4507262, “Data for DCP probe A-1596586” (2021).

What was measured:
[1] = target: 5-hydroxytryptamine receptor 4 (Homo sapiens) (UniProt Q13639); test: 5-HT4 e (h) Eurofins-Cerep binding assay; design: ligand concentration 0.3 nM; conditions: filed as antagonist, Compound concentration 10.0 uM
[2] = target: Serine/threonine-protein kinase RIO1 (Homo sapiens) (UniProt Q9BRS2); conditions: Compound concentration 1000.0 nM
[3] = target: Serine/threonine-protein kinase SIK1 (Homo sapiens) (UniProt P57059); conditions: Compound concentration 1000.0 nM
[4] = target: Aurora kinase B (Homo sapiens) (UniProt Q96GD4); conditions: Compound concentration 1000.0 nM
[5] = target: L-type Ca2+ channel (diltiazem site, benzothiazepines) (Rattus norvegicus, UniProt P22002+P27732+Q02485); test: Ca2+ channel (L, diltiazem site) (benzothiazepines) Eurofins-Cerep binding assay; assay type: protein assay; design: incubation time 120 min, incubation temperature RT, ligand concentration 15 nM; conditions: rat cerebral cortex, probe [3H]diltiazem (15 nM), compound concentration 10 uM, read-out: % Inhibition of Control Specific Binding (Mean n=2)
[6] = target: Calcium/calmodulin-dependent protein kinase kinase 1 (Homo sapiens) (UniProt Q8N5S9); conditions: Compound concentration 1000.0 nM
[7] = target: Serine/threonine-protein kinase Nek6 (Homo sapiens) (UniProt Q9HC98); conditions: Compound concentration 1000.0 nM
[8] = target: Substance-P receptor (Homo sapiens) (UniProt P25103); test: NK1 (h) Eurofins-Cerep binding assay; design: ligand concentration 0.05 nM; conditions: filed as agonist, Compound concentration 10.0 uM
[9] = target: Dual serine/threonine and tyrosine protein kinase (Homo sapiens) (UniProt Q6XUX3); conditions: Compound concentration 1000.0 nM
[10] = tested on: Epidermal growth factor receptor (Homo sapiens), P00533 [UNDEFINED MUTATION]; conditions: Compound concentration 1000.0 nM
[11] = target: High affinity nerve growth factor receptor (Homo sapiens) (UniProt P04629); conditions: Compound concentration 1000.0 nM
[12] = target: Mitogen-activated protein kinase kinase kinase 20 (Homo sapiens) (UniProt Q9NYL2); conditions: Compound concentration 1000.0 nM
[13] = target: Tyrosine-protein kinase receptor TYRO3 (Homo sapiens) (UniProt Q06418); conditions: Compound concentration 1000.0 nM
[14] = target: Phosphatidylinositol 3-kinase catalytic subunit type 3 (Homo sapiens) (UniProt Q8NEB9); conditions: Compound concentration 1000.0 nM
[15] = target: Testis-specific serine/threonine-protein kinase 1 (Homo sapiens) (UniProt Q9BXA7); conditions: Compound concentration 1000.0 nM
[16] = tested on: Epidermal growth factor receptor (Homo sapiens), P00533 [UNDEFINED MUTATION]; conditions: Compound concentration 1000.0 nM; remark: listed apart in the source
[17] = target: Muscarinic acetylcholine receptor M3 (Homo sapiens) (UniProt P20309); conditions: Compound concentration 10.0 uM
[18] = target: NUAK family SNF1-like kinase 2 (Homo sapiens) (UniProt Q9H093); conditions: Compound concentration 1000.0 nM
[19] = target: Tyrosine-protein kinase Yes (Homo sapiens) (UniProt P07947); conditions: Compound concentration 1000.0 nM
[20] = target: Activated CDC42 kinase 1 (Homo sapiens) (UniProt Q07912); conditions: Compound concentration 1000.0 nM
[21] = target: Death-associated protein kinase 3 (Homo sapiens) (UniProt O43293); conditions: Compound concentration 1000.0 nM
[22] = target: Serine/threonine-protein kinase SIK2 (Homo sapiens) (UniProt Q9H0K1); conditions: Compound concentration 1000.0 nM
[23] = tested on: Tyrosine-protein kinase ABL1 (Homo sapiens), P00519 [Q252H]; conditions: Compound concentration 1000.0 nM
[24] = target: Mitogen-activated protein kinase kinase kinase 7 (Homo sapiens) (UniProt O43318); conditions: Compound concentration 1000.0 nM
[25] = target: Adenosine receptor A1 (Homo sapiens) (UniProt P30542); test: A1 (h) Eurofins-Cerep binding assay; design: ligand concentration 1 nM; conditions: filed as antagonist, Compound concentration 10.0 uM
[26] = target: Sigma intracellular receptor 2 (Homo sapiens, UniProt Q5BJF2); test: GPCRScan assay: inhibition of Sigma 2; design: radioligand conc. used [nm] 5.0, parental cells HEKT
[27] = target: 5'-AMP-activated protein kinase catalytic subunit alpha-1 (Homo sapiens) (UniProt Q13131); conditions: Compound concentration 1000.0 nM
[28] = tested on: Phosphatidylinositol 4,5-bisphosphate 3-kinase catalytic subunit alpha isoform (Homo sapiens), P42336 [Q546K]; conditions: Compound concentration 1000.0 nM
[29] = target: Ribosomal protein S6 kinase alpha-1 (Homo sapiens) (UniProt Q15418); conditions: Compound concentration 1000.0 nM
[30] = target: ALK tyrosine kinase receptor (Homo sapiens) (UniProt Q9UM73); conditions: Compound concentration 1000.0 nM
[31] = target: Ribosomal protein S6 kinase alpha-3 (Homo sapiens) (UniProt P51812); conditions: Compound concentration 1000.0 nM
[32] = target: cAMP-dependent protein kinase catalytic subunit beta (Homo sapiens) (UniProt P22694); conditions: Compound concentration 1000.0 nM
[33] = target: Tyrosine-protein kinase ABL1 (Homo sapiens) (UniProt P00519); conditions: Compound concentration 1000.0 nM
[34] = target: Serine/threonine-protein kinase 38-like (Homo sapiens) (UniProt Q9Y2H1); conditions: Compound concentration 1000.0 nM
[35] = target: Serine/threonine-protein kinase PLK1 (Homo sapiens) (UniProt P53350); conditions: Compound concentration 1000.0 nM
[36] = target: Serine/threonine-protein kinase PLK2 (Homo sapiens) (UniProt Q9NYY3); conditions: Compound concentration 1000.0 nM
[37] = target: Mitogen-activated protein kinase 3 (Homo sapiens) (UniProt P27361); conditions: Compound concentration 1000.0 nM
[38] = target: Serine/threonine-protein kinase 32A (Homo sapiens) (UniProt Q8WU08); conditions: Compound concentration 1000.0 nM
[39] = target: Cyclin-dependent kinase 8 (Homo sapiens) (UniProt P49336); conditions: Compound concentration 1000.0 nM
[40] = target: Myosin-IIIa (Homo sapiens) (UniProt Q8NEV4); conditions: Compound concentration 1000.0 nM
[41] = target: Interleukin-1 receptor-associated kinase 3 (Homo sapiens) (UniProt Q9Y616); conditions: Compound concentration 1000.0 nM
[42] = tested on: Receptor-type tyrosine-protein kinase FLT3 (Homo sapiens), P36888 [UNDEFINED MUTATION]; conditions: Compound concentration 1000.0 nM
[43] = target: Protein kinase C epsilon type (Homo sapiens) (UniProt Q02156); conditions: Compound concentration 1000.0 nM
Protein kinase C epsilon type (Homo sapiens), sequence (Q02156 whole entry): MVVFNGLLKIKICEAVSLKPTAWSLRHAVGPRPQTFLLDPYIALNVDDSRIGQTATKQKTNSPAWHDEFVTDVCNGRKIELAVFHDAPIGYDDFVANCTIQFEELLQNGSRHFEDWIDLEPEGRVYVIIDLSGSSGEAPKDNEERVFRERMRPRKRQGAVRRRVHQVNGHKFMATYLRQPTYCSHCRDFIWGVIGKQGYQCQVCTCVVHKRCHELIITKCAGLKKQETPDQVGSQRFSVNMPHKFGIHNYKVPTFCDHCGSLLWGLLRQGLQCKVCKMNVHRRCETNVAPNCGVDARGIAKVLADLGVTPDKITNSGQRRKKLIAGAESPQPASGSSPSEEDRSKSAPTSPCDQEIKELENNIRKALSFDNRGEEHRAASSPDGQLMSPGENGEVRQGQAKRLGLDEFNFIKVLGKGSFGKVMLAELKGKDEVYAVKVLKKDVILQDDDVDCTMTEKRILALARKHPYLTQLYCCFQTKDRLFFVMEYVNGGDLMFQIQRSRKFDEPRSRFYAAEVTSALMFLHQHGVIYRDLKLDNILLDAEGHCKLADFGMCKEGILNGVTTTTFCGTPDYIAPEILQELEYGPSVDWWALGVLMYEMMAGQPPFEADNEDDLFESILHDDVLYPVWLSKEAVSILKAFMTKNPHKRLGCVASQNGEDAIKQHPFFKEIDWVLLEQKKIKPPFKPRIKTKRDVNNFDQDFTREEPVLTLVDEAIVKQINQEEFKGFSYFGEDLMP

Epidermal growth factor receptor (Homo sapiens), P00533 [UNDEFINED MUTATION], sequence (P00533 whole entry, looked up, change not shown): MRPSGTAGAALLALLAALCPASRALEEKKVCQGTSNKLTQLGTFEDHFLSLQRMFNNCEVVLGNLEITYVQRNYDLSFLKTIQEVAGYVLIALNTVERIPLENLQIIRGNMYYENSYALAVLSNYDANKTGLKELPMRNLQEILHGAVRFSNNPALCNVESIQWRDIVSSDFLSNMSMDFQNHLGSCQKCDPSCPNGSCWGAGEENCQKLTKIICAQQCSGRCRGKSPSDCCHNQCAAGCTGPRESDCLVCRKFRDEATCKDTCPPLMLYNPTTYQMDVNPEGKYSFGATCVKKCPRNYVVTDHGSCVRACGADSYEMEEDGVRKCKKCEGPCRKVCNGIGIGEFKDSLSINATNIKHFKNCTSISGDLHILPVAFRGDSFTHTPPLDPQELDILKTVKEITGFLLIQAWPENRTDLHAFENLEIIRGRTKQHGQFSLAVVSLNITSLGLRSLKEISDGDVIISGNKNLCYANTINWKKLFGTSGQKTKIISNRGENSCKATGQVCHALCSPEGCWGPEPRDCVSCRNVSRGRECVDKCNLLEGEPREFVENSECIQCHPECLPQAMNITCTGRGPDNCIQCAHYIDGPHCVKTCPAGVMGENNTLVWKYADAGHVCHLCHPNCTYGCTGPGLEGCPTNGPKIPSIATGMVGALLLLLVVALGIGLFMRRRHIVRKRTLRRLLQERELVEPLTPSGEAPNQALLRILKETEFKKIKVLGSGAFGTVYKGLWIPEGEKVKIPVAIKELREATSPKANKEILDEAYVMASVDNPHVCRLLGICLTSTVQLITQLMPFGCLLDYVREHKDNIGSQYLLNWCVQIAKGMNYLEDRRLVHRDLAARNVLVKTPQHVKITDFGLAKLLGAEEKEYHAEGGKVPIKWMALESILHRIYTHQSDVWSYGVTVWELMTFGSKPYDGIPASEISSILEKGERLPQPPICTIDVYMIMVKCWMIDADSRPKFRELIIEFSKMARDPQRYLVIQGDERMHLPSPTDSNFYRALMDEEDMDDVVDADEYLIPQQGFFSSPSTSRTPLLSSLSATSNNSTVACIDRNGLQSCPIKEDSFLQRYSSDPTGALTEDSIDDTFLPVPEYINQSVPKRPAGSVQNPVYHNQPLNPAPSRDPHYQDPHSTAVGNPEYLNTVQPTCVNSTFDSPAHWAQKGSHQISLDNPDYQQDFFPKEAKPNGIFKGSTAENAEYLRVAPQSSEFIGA
Mitogen-activated protein kinase 3 (Homo sapiens), sequence (P27361 whole entry): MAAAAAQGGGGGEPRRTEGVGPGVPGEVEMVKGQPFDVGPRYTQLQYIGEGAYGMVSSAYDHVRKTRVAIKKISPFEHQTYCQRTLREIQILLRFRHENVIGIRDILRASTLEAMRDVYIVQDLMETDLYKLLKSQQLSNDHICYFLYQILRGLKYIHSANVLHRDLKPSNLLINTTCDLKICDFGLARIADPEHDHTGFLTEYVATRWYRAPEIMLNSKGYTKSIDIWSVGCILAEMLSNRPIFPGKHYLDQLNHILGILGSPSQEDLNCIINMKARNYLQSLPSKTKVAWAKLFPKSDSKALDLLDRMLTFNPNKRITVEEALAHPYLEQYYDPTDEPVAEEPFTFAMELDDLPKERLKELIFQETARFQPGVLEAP
High affinity nerve growth factor receptor (Homo sapiens), sequence (P04629 33-796 limits assumed): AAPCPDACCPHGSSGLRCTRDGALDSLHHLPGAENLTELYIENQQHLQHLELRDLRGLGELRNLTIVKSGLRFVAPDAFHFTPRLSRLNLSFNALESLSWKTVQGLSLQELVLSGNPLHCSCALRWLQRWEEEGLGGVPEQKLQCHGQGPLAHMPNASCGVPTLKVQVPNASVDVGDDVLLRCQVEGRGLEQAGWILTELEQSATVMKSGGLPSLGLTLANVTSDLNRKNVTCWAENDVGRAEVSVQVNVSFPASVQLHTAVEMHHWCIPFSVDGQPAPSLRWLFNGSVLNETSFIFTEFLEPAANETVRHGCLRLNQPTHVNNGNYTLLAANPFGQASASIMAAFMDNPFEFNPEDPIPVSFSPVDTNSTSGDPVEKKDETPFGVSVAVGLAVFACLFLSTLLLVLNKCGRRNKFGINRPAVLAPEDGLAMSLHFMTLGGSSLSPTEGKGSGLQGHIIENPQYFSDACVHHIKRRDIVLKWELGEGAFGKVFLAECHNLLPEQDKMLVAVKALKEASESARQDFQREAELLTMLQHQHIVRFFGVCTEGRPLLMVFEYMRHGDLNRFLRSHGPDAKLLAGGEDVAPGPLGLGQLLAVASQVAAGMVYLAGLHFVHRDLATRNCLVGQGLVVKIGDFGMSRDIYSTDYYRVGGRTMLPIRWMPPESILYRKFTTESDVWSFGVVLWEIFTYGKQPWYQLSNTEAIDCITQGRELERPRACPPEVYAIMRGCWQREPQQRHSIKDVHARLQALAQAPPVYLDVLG
Ribosomal protein S6 kinase alpha-1 (Homo sapiens), sequence (Q15418 whole entry): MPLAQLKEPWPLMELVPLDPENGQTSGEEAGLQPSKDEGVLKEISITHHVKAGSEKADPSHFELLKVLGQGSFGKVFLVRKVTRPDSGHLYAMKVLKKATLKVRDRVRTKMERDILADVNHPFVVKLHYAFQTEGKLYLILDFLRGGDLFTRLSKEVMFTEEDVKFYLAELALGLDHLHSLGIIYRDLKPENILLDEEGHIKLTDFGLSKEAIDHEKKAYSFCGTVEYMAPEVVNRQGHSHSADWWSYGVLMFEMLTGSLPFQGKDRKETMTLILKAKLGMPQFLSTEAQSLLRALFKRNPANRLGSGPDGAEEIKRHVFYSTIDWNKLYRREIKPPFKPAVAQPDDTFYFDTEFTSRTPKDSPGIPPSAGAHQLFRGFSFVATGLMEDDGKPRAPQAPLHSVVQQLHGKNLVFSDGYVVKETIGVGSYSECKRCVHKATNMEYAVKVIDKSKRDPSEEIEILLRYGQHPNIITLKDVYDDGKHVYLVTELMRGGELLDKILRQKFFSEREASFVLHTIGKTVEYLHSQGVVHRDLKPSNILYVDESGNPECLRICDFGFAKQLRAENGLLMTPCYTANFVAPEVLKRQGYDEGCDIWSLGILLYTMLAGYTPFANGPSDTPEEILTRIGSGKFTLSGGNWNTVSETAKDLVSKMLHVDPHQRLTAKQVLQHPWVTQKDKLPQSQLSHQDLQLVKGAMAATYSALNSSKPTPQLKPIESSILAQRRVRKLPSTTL
Serine/threonine-protein kinase PLK2 (Homo sapiens), sequence (Q9NYY3 whole entry, looked up): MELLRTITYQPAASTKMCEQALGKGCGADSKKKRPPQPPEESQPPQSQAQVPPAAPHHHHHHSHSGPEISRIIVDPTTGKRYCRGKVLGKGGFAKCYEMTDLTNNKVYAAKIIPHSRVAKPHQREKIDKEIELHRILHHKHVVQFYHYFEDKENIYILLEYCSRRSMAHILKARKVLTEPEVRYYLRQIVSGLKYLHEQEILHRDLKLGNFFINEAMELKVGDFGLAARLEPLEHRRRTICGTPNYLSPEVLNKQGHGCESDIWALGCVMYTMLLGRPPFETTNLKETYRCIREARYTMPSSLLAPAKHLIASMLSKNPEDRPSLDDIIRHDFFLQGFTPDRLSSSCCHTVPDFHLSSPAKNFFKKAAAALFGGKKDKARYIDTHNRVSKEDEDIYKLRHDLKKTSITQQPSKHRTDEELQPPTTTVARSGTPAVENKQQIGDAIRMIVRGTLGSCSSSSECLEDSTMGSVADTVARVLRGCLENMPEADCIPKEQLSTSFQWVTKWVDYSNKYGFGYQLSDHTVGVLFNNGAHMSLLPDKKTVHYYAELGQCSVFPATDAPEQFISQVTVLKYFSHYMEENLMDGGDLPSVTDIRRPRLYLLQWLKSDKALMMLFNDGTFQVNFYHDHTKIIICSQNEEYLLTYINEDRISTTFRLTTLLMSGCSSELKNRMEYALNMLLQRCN
Death-associated protein kinase 3 (Homo sapiens), sequence (O43293 whole entry, looked up): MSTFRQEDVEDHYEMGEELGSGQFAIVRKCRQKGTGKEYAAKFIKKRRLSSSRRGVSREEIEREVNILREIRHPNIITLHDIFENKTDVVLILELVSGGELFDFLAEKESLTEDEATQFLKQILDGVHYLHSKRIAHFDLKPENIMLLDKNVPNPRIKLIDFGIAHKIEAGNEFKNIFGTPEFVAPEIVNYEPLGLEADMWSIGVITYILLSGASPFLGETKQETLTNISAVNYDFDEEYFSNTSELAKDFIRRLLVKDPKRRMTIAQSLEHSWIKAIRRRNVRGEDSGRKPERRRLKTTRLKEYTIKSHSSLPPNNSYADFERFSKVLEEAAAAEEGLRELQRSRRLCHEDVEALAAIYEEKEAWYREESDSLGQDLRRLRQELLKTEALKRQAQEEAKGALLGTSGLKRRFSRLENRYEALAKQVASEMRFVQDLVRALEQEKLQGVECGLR

COc1ccc2c(c1)O[C@@H](c1ccc(OC)c(OC)c1)C[C@H]2NC(=O)C1(c2ccc3c(c2)OC(F)(F)O3)CC1 [A-1596586]
% Inhibition of Control Specific Binding (Mean n=2) [1]: 10.2% | residual activity [2]: 100% | residual activity [3]: 100% | residual activity [4]: 84% | inhibition at 120 min, 10 µM [5]: 29.7% | residual activity [6]: 89% | residual activity [7]: 100% | % Inhibition of Control Specific Binding (Mean n=2) [8]: 44.4% | residual activity [9]: 76% | residual activity [10]: 68% | residual activity [11]: 100% | residual activity [12]: 97% | residual activity [13]: 97% | residual activity [14]: 78% | residual activity [15]: 100% | residual activity [16]: 100% | inhibition [17]: 1.13% | residual activity [18]: 76% | residual activity [19]: 100% | residual activity [20]: 100% | residual activity [21]: 93% | residual activity [22]: 95% | residual activity [23]: 90% | residual activity [24]: 100% | % Inhibition of Control Specific Binding (Mean n=2) [25]: 14.3% | Ki [26]: 1190 nM | residual activity [27]: 80% | residual activity [28]: 78% | residual activity [29]: 85% | residual activity [30]: 100% | residual activity [31]: 81% | residual activity [32]: 95% | residual activity [33]: 80% | residual activity [34]: 100% | residual activity [35]: 70% | residual activity [36]: 81% | residual activity [37]: 89% | residual activity [38]: 100% | residual activity [39]: 100% | residual activity [40]: 93% | residual activity [41]: 85% | residual activity [42]: 65% | residual activity [43]: 91%

COc1ccc2c(c1)O[C@H](c1ccc(OC)c(OC)c1)C[C@@H]2NC(=O)C1(c2ccc3c(c2)OC(F)(F)O3)CC1 [A-1596584]
% Inhibition of Control Specific Binding (Mean n=2) [1]: 5.3% | residual activity [2]: 100% | residual activity [3]: 100% | residual activity [4]: 98% | inhibition at 120 min, 10 µM [5]: -7.6% | residual activity [6]: 100% | residual activity [7]: 100% | % Inhibition of Control Specific Binding (Mean n=2) [8]: 92.1% | residual activity [9]: 94% | residual activity [10]: 64% | residual activity [11]: 100% | residual activity [12]: 97% | residual activity [13]: 97% | residual activity [14]: 88% | residual activity [15]: 100% | residual activity [16]: 98% | inhibition [17]: 2.35% | residual activity [18]: 100% | residual activity [19]: 97% | residual activity [20]: 99% | residual activity [21]: 95% | residual activity [22]: 100% | residual activity [23]: 100% | residual activity [24]: 100% | % Inhibition of Control Specific Binding (Mean n=2) [25]: 11.5% | Ki [26]: 584 nM | residual activity [27]: 100% | residual activity [28]: 100% | residual activity [29]: 100% | residual activity [30]: 100% | residual activity [31]: 74% | residual activity [32]: 99% | residual activity [33]: 93% | residual activity [34]: 100% | residual activity [35]: 83% | residual activity [36]: 100% | residual activity [37]: 100% | residual activity [38]: 100% | residual activity [39]: 100% | residual activity [40]: 100% | residual activity [41]: 86% | residual activity [42]: 72% | residual activity [43]: 90%
